In US7569554B2, “Synergistic treatment of cancer using immunomers in conjunction with therapeutic agents” (Idera Pharmaceuticals, Inc., priority 2003, dated 2009):

What was measured:
BALB/c mice = assay: In vivo serum cytokine induction; set-up: species or system mouse
Protocol: To assess serum cytokine levels, BALB/c mice (n=5) were injected intraperitoneally (i.p), subcutaneously (s.c) or intramuscularly (i.m) with IMO compounds at 10 mg/kg (single dose). Sera was collected by retro-orbital bleeding at 4 hrs of IMO administration and determined IL-112 and IL-6 by sandwich ELISA. Cytokine antibodies and standards were purchased from PharMingen (San Diego, Calif.).
To evaluate the immunopharmacological effects in vivo, IMO compounds, CpG immunomers, and non-CpG oligos were administered to BALB/c mice i.p, s.c or i.m at a dose of 10 mg/kg and their serum was evaluated for IL-12 and IL-6 after 4 hrs.

[1] = In vitro cytokine induction profiles of IMO compounds (FIG. 16); format: cell-based
CT26.CL25 colon tumor = assay: Subcutaneous CT26.CL25 colon tumor in BALB/c mice; format: in vivo, mouse; conditions: day 24, compared with non-CpG DNA treated mice; 1 mg/kg peritumoral
Protocol: (§1) For subcutaneous solid tumor models, 10^6 CT26.CL25 cells/mouse or 5×10^5 B16.F0 cells/mouse in 100 μl of PBS were implanted into BALB/c or C57BL/6 mice in the lower right flank. The tumor size reached to 50 to 200 mg on day 6 for CT26.CL25 and on day 8 for B16.F0 post tumor inoculation. The tumor bearing mice were then treated with peritumoral injection of IMO compounds or non-CpG DNA control at a dose of 1 mg/kg every other day for 10 times. Tumor growth was recorded with the use of calipers, by measuring the long and short diameters of the tumor. Tumor volumes were measured with a caliper and the formula (0.5×length×width^2) was applied to determine tumor growth kinetics.
The antitumor activity of IMO compounds in a murine colon carcinoma CT26.CL25 model was evaluated. BALB/c mice bearing CT26.CL25 subcutaneous solid tumors were treated with 1 mg/kg IMO compounds by peritumoral administration every other day for 10 times starting on day 6 following tumor inoculation.

CT26.WT = assay: Peritoneal disseminated CT26.WT tumor, survival; format: in vivo, mouse; conditions: peritoneal administration, 1 mg/kg; FIG. 17B
Protocol: (§2) For peritoneal disseminated tumor model, 3×10^5 CT26.WT or CT26.CL25 cells and 5×10^4 B16.F0 cells were injected i.p to BALB/c or C57BL/6 mice respectively. […] Mice were checked daily for tumor growth and for survival. Each dose group had 6 to 10 mice.

CT26.CL25 = assay: Peritoneal disseminated CT26.CL25 tumor, survival; format: in vivo, mouse; conditions: peritoneal administration, 1 mg/kg; FIG. 17C
Protocol: as §2

[2] = system: CT26.WT and CT26.CL25 tumors; assay: Rechallenge of long term survivors with CT26.WT or CT26.CL25; format: in vivo, mouse
Source text: (§3) Long term survivors (n=5) of IMO compound treated mice with CT26.WT or CT26.CL25 peritoneal tumor were rechallenged i.p. or i.v. with 5×10^5 of the parental tumor cells without any further treatment. To evaluate the specificity of the IMO induced antitumor response in tumor bearing mice, these long term survivors (n=5) were also rechallenged with syngeneic, non-organ-related mammary tumor 4T1 (5×10^5). For i.v. rechallenged groups, mice were sacrificed on day 13, lungs were harvested and lung metastases were counted.

4T1 mammary carcinoma = assay: Rechallenge of long term survivors with 4T1; format: in vivo, mouse; conditions: FIG. 20C
Source text: as §3

CT26.CL25 tumor cells = assay: Adoptive transfer of splenocytes, CT26.CL25 challenge; format: in vivo, mouse; conditions: FIG. 21A
Source text: (§4) To study adoptive immune cell transfer, BALB/c mice were adoptively i.p. transferred with 5×10^6 of syngeneic splenocytes either from naïve BALB/c mice or from IMO treated long term survivors bearing CT26.WT or CT26.CL25, the mice (5/group) were then cross challenged i.p. with 3×10^5 CT26.WT, CT26.CL25 or 4T1 cells on day 3.

4T1 tumor cells = assay: Adoptive transfer of splenocytes, 4T1 challenge; format: in vivo, mouse; conditions: FIG. 21B
Source text: as §4

B16.F0 melanoma [3] = assay: Subcutaneous B16.F0 melanoma in C57BL/6 mice; format: in vivo, mouse; conditions: 1 mg/kg peritumoral every other day for 10 times from day 8; FIG. 22A
Protocol: as §1
IMO 2 was further tested for its antitumor activity in mice bearing B 16.F0 murine melanoma. C57BL/6 mice bearing B16.F0 melanoma were treated with 1 mg/kg IMO 2 by peritumoral administration every other day for 10 times starting on day 8 following tumor inoculation.

[4] = Total serum IgG1 and IgG2a in B16.F0 tumor bearing C57BL/6 mice; format: in vivo, mouse; conditions: compared with control non-CpG DNA
Protocol: For the analysis of serum antibodies, 96 well plates were incubated at room temperature for 3 hours with β-gal protein (Calbiochem Novabiochem, Pasadena, Calif.) at 2 μg/ml in phosphate buffered saline (PBS). The solid phase was incubated overnight at 4° C. with normal mouse serum (NMS) or antiserum, or β-gal specific monoclonal Ab (Calbiochem Novabiochem, Pasadena, Calif.) followed by an incubation with horseradish peroxidase (HRP)-conjugated antibodies specific for mouse IgG (H+L). For isotype analysis, HRP-labelled goat anti-mouse IgG1 and IgG2a (Southern Biotechnology, Birmingham, Ala.) were used. The binding of antibodies was measured as absorbance at 405 nm after reaction of the immune complexes with ABTS substrate (Zymed, San Francisco, Calif.).

B16.F0 melanoma [5] = assay: B16.F0 melanoma in wt, IL-6 ko and IL-12 ko C57BL/6 mice; format: in vivo, mouse; conditions: FIG. 23
Source text: Female BALB/c (H-2^d), C57BL/6, and IL-6 and IL-12 knockout (ko) (both ko on a C57BL/6 background) mice 5-8 weeks of age, were purchased from Jackson Laboratory (Bar Harbor, Me.). CT26.WT (ATCC, Rockville, Md.) is a carcinogen-induced BALB/c undifferentiated colon carcinoma. CT26.CL25 (ATCC, Rockville, Md.) is a subclone of CT26.WT that has been transduced with Escherichia coli β-gal gene. 4T1 is a mammary adenocarcinoma cell line in BALB/c mice. B16.F0 is a C57BL/6 derived melanoma (ATCC). CT26.WT and 4T1 cells were cultured in RPMI 1640, 10% heat-inactivated fetal bovine serum (FBS, Atlas Biologicals, Fort Colins, Colo.), 2 mM L-glutamine, 100 μg/ml streptomycin, 100 U/ml penicillin (Mediatech, Va.). CT26.CL25 is maintained in the same medium plus 400 μg/ml G418 sulfate (Life Technologies, Grand Island, N.Y.). B 16.F0 cells were grown in DMEM containing 10% FBS and antibiotics.
For peritoneal disseminated tumor model, 3×10^5 CT26.WT or CT26.CL25 cells and 5×10^4 B16.F0 cells were injected i.p to BALB/c or C57BL/6 mice respectively. IMO compounds or non-CpG DNA (2.5 mg/kg) were administrated i.p. twice per week starting on day 1 for a total of 5 times. Mice were checked daily for tumor growth and for survival. Each dose group had 6 to 10 mice.

4T1 breast tumor = 4T1 breast tumor in BALB/c mice, combination with doxorubicin; format: in vivo, mouse; conditions: IMO 2 1 mg/kg peritumoral, doxorubicin 30 mg/kg i.p; FIG. 24A
Protocol: For the 4T1 tumor models, 5×10^5 cells/mouse in. 100 μl PBS were implanted into BALB/c mice in the lower right flank. On day 5 when the average tumor size reached 50 mm^2, the mice were given i.p injections of 30 mg/kg doxorubicin (Bedford lab, Bedford, Ohio) for three times on days 5, 6 and 7. IMO 2 (1 mg/kg) dissolved in 100 μl PBS was administrated by peritumoral injection at twice a week interval for a total of six times.

CD69+ and CD86+ cells = assay: Activation of CD69+ and CD86+ cells in peripheral blood; format: in vivo, mouse; conditions: docetaxel 30 mg/kg days 1 and 3, IMO 2 5 mg/kg days 1, 3, 5, 7; FIG. 24C
[6] = system: Her-2 overexpressing human breast tumors (BT474); assay: Her-2 overexpressing human breast tumors (BT474) in nude mice, combination with Herceptin; format: in vivo, mouse; conditions: compared to the PBS control group; Herceptin 10 mg/kg i.p, IMO 1 mg/kg peritumoral, twice a week for 6 weeks; FIG. 29
[7] = system: Her-2 overexpressing human breast tumors (BT474); assay: Example 23 tumor model, Rituxan and/or IMO 2; format: in vivo, mouse; conditions: Rituxan days 5, 7, 9, 11; IMO 2 days 5, 7, 9, 11, 13; FIG. 30
Protocol: Nude mice bearing subcutaneously implanted Her-2 overexpressing human breast tumors (BT474). Tumor bearing mice were treated by intraperitoneal injections of Rituxan on days 5, 7, 9 and 11 and/or IMO 2 on days 5, 7, 9, 11 and 13.

[8] = Intramuscular (i.m), 10 mg/kg, 4 hrs
[9] = Intraperitoneal (i.p), 10 mg/kg, 4 hrs
[10] = Subcutaneous (s.c), 10 mg/kg, 4 hrs

In the case of “IMO 2: IMO compound of FIG. 15 (SEQ ID NO 24) containing a synthetic CpR motif, mouse-specific immunostimulatory motif (DNA TCTGACNTTCT; synthetic CpR motif, chemistry not fully specified)”, the “Serum IL-6 induction” value (BALB/c mice; 10 mg/kg, all three routes of administration, 4 hrs) is reported as “significantly lower serum IL-6”, the “Serum IL-12 secretion in mice” value (BALB/c mice; 4 hr after administration, FIG. 25B) is reported as “induced IL-12 secretion” and the “IL-6 (serum)” value (BALB/c mice; [8]) is reported as 1.2 ± 0.1 ng/mL. The “IL-12 (serum)” value (BALB/c mice; [8]) was 87.9 ± 3.2 ng/mL, the “IL-6 (serum)” value (BALB/c mice; [9]) was 2.5 ± 0.2 ng/mL and the “IL-12 (serum)” value (BALB/c mice; [9]) was 51.7 ± 0.9 ng/mL. The “IL-6 (serum)” value (BALB/c mice; [10]) was 2.3 ± 0.4 ng/mL, the “IL-12 (serum)” value (BALB/c mice; [10]) was 136.9 ± 17 ng/mL and the “IL-6 production in vitro” value [1] was “lower IL-6 production”. The “IL-12 secretion in vitro” value [1] was “strong IL-12 secretion”, the “Average tumor growth inhibition” value (CT26.CL25 colon tumor) was 85% and the Mice survival (CT26.WT) was “marked increase of mice survival”. The Mice survival (CT26.CL25) was “marked increase of mice survival”, the “Rejection of pulmonary metastases after i.v. inoculation” value ([2]; data not shown) was “able to reject pulmonary metastases of the same tumor” and the “Protection against i.p rechallenge” value ([2]; mice cleared of CT26.CL25 peritoneal tumor, FIGS. 20A and B) was “rejected i.p rechallenge with CT26.WT and CT26.CL25 tumors”. The “Protection against 4T1 mammary carcinoma challenge” value (4T1 mammary carcinoma) was “not protected”, the “Protection by transferred splenocytes against CT26.CL25 challenge” value (CT26.CL25 tumor cells) was “protective against a lethal tumor challenge” and the “Protection by transferred splenocytes against 4T1 challenge” value (4T1 tumor cells) was “did not extend to 4T1 tumor cell challenge”. The Tumor growth inhibition (B16.F0 melanoma [3]) was 71%, the “Total IgG1 levels” value ([4]; FIG. 22B) was “decrease or no change” and the “Total circulating serum IgG2a” value ([4]; FIG. 22C) was “significant increase”. For the same substance, the Tumor growth (B16.F0 melanoma [5]; IL-6 ko C57BL/6 mice) was “significant reduction in tumor growth”, the Tumor growth (B16.F0 melanoma [5]; wt C57BL/6 mice) was “significant reduction in tumor growth” and the “Inhibition of 4T1 tumor growth” value (4T1 breast tumor) was “strong inhibition”. The “Percentage of CD69+ and CD86+ cells” value (CD69+ and CD86+ cells) was “significant increase in the percentage of CD69+ and CD86+cells”, the Tumor growth inhibition [6] was 65% and the Tumor growth [7] was “significantly inhibited”.
